Reference: PMC4086519, “Anti-Trichophyton Activity of Protocatechuates and Their Synergism with Fluconazole” (Evidence-based Complementary and Alternative Medicine : eCAM, 2014)
Converted amounts (≈) assume the structure as drawn. Like-named read-outs stand apart in the source and are kept apart here.

Legend:
Assay type in all cases: cell-based
Trichophyton rubrum [1] = experiment: Broth microdilution MIC (CLSI M38-A2, modified)
Experimental: (§1) To evaluate its antifungal activity, […] of dermatophytes were tested: two clinical strains of Trichophyton rubrum (Tr1 and Tr2), Trichophyton rubrum ATCC MYA 3108, two clinical strains of Trichophyton mentagrophytes (Tm1 and Tm2), and Trichophyton mentagrophytes ATCC 40131 (Tm3). The microorganisms were obtained from the collection of the Clinical Mycology Laboratory of the Department of Clinical Analyses at the School of Pharmaceutical Sciences of Universidade Estadual Paulista (UNESP). The strains were cultivated on Sabouraud dextrose agar (Difco, BD Biosciences) and incubated at 28°C for 7-15 days. For all experiments, the strains were cultivated on Potato Dextrose Agar (Difco, BD Biosciences) and incubated at 28°C as described above or until sporulation. The dilution of the synthetic compounds was performed with DMSO (Synth, Diadema, Sao Paulo, Brazil) as described by Scorzoni et al.. […] The antifungal drugs were diluted according to the CLSI […]-A2 document. Stock solutions of Fluconazole (Sigma-Aldrich, St. Louis, MO, USA) were prepared, considering its power. Serial twofold dilutions were prepared according to the recommendations of Zhang and collaborators, with some modifications. The antifungal activity tests were performed using the broth microdilution method as described in […]-A2, a document produced by the Clinical and Laboratory Standards Institute (CLSI, 2008), with modifications. The medium used was RPMI 1640 with L-glutamine (Sigma-Aldrich, St. Louis, MO, USA) buffered to pH 7.0 with 0.165 M morpholinepropanesulfonic acid (MOPS) (Sigma-Aldrich, St. Louis, MO, USA), supplemented with 2% glucose. […] The suspension of conidia was then transferred to small sterile test tubes where they remained for 40 minutes to separate the microconidia, which were lighter and therefore present in the supernatant. […] These suspensions were diluted in RPMI 1640 (Sigma-Aldrich, St. […] Positive (100 μL of RPMI medium with 100 μL of inoculum) and negative (200 μL of RPMI) controls were included in all experiments. The plates were incubated with agitation at 35°C for 7 days. The MIC reading was performed by spectrophotometry at 490 nm.

[2] = tested on: Trichophyton mentagrophytes; experiment: Broth microdilution MIC (CLSI M38-A2, modified)
Experimental: as §1

Trichophyton rubrum [3] = experiment: Minimum fungicide concentration (MFC)
Experimental: (§2) A qualitative analysis of the fungal viability was performed by transferring a portion of the wells to a plate with Sabouraud (Difco, BD Biosciences) medium and incubating it at 35°C for the time determined for each fungal agent. […] A visual reading was performed to confirm the death or growth inhibition provided by fluconazole and the sixteen semisynthetic substances derived from protocatechuic acid.

[4] = tested on: Trichophyton mentagrophytes; experiment: Minimum fungicide concentration (MFC)
Experimental: as §2

[5] = Tr1, T. rubrum clinical isolate, 35°C, 7 days
[6] = Tr2, T. rubrum clinical isolate, 35°C, 7 days
[7] = Tr3, T. rubrum ATCC MYA 3108, 35°C, 7 days
[8] = Tm1, clinical isolate, 35°C, 7 days
[9] = Tm2, clinical isolate, 35°C, 7 days
[10] = Tm3, T. mentagrophytes ATCC 40131, 35°C, 7 days
[11] = Tr1, T. rubrum clinical isolate
[12] = Tr2, T. rubrum clinical isolate
[13] = Tm3, T. mentagrophytes ATCC 40131

SMILES | MIC (Trichophyton rubrum [1]; [5]) | MIC (Trichophyton rubrum [1]; [6]) | MIC (Trichophyton rubrum [1]; [7]) | MIC [2, 8] | MIC [2, 9] | MIC [2, 10] | MFC (Trichophyton rubrum [3]; [11]) | MFC (Trichophyton rubrum [3]; [12]) | MFC (Trichophyton rubrum [3]; Tr3, T. rubrum ATCC MYA 3108) | MFC ([4]; Tm1, clinical isolate) | MFC ([4]; Tm2, clinical isolate) | MFC [4, 13] | also measured
CC(=O)Oc1ccc(C(=O)O)cc1OC(C)=O [Acid 3.4 diacetoxybenzoic, 3,4-diacetoxybenzoic acid] |  |  |  |  |  |  |  |  |  |  |  |  | MIC (Trichophyton rubrum [1]; Trichophyton rubrum, 168 h, Tr1, T. rubrum clinical isolate, 35°C, 7 days, read-out: MIC): 250 µg/mL (≈ 1050 µM); MIC (Trichophyton rubrum [1]; Trichophyton rubrum, 168 h, Tr2, T. rubrum clinical isolate, 35°C, 7 days, read-out: MIC): > 250 µg/mL; MIC (Trichophyton rubrum [1]; Trichophyton rubrum, 168 h, Tr3, T. rubrum ATCC MYA 3108, 35°C, 7 days, read-out: MIC): > 250 µg/mL; MIC ([2]; Trichophyton mentagrophytes, 168 h, Tm1, clinical isolate, 35°C, 7 days, read-out: MIC): 250 µg/mL (≈ 1050 µM); MIC ([2]; Trichophyton mentagrophytes, 168 h, Tm2, clinical isolate, 35°C, 7 days, read-out: MIC): > 250 µg/mL; MIC ([2]; Trichophyton mentagrophytes, ATCC40131, 168 h, Tm3, T. mentagrophytes ATCC 40131, 35°C, 7 days, read-out: MIC): 250 µg/mL (≈ 1050 µM); MFC (Trichophyton rubrum [3]; Trichophyton rubrum, Tr1, T. rubrum clinical isolate, read-out: MFC): 250 µg/mL (≈ 1050 µM); MFC (Trichophyton rubrum [3]; Trichophyton rubrum, Tr2, T. rubrum clinical isolate, read-out: MFC): > 250 µg/mL; MFC (Trichophyton rubrum [3]; Trichophyton rubrum, Tr3, T. rubrum ATCC MYA 3108, read-out: MFC): > 250 µg/mL; MFC ([4]; Trichophyton mentagrophytes, ATCC40131, Tm3, T. mentagrophytes ATCC 40131, read-out: MFC): 250 µg/mL (≈ 1050 µM); MFC ([4]; Trichophyton mentagrophytes, Tm1, clinical isolate, read-out: MFC): 250 µg/mL (≈ 1050 µM); MFC ([4]; Trichophyton mentagrophytes, Tm2, clinical isolate, read-out: MFC): > 250 µg/mL
COC(=O)c1ccc(O)c(O)c1 [Protocatechuate methyl] | 62.5 µg/mL (≈ 372 µM) | 31.2 µg/mL (≈ 186 µM) | 31.2 µg/mL (≈ 186 µM) | 62.5 µg/mL (≈ 372 µM) | 62.5 µg/mL (≈ 372 µM) | 31.2 µg/mL (≈ 186 µM) | 62.5 µg/mL (≈ 372 µM) | 31.2 µg/mL (≈ 186 µM) | 62.5 µg/mL (≈ 372 µM) | 250 µg/mL (≈ 1490 µM) | 62.5 µg/mL (≈ 372 µM) | 62.5 µg/mL (≈ 372 µM) | 
CCCCCCCCCCCCCCOC(=O)c1ccc(O)c(O)c1 [Protocatechuate tetradecyl] | > 250 µg/mL | 125 µg/mL (≈ 357 µM) | > 250 µg/mL | > 250 µg/mL | 125 µg/mL (≈ 357 µM) | > 250 µg/mL | > 250 µg/mL | 125 µg/mL (≈ 357 µM) | > 250 µg/mL | > 250 µg/mL | 250 µg/mL (≈ 713 µM) | > 250 µg/mL | 
CCCCCCCCCCCCCCCCCCOC(=O)c1ccc(O)c(O)c1 [Protocatechuate octadecyl] | > 250 µg/mL | > 250 µg/mL | > 250 µg/mL | > 250 µg/mL | > 250 µg/mL | > 250 µg/mL | > 250 µg/mL | > 250 µg/mL | > 250 µg/mL | > 250 µg/mL | > 250 µg/mL | > 250 µg/mL | 
CCCCCCCCCCOC(=O)c1ccc(O)c(O)c1 [Protocatechuate decyl] | 3.9 µg/mL (≈ 13.2 µM) | 3.9 µg/mL (≈ 13.2 µM) | 3.90 µg/mL (≈ 13.2 µM) | 7.8 µg/mL (≈ 26.5 µM) | 3.9 µg/mL (≈ 13.2 µM) | 3.90 µg/mL (≈ 13.2 µM) | 3.9 µg/mL (≈ 13.2 µM) | 3.9 µg/mL (≈ 13.2 µM) | 7.8 µg/mL (≈ 26.5 µM) | 7.8 µg/mL (≈ 26.5 µM) | 3.9 µg/mL (≈ 13.2 µM) | 15.6 µg/mL (≈ 53 µM) | 
CCCOC(=O)c1ccc(O)c(O)c1 [Protocatechuate propyl] | 15.6 µg/mL (≈ 79.5 µM) | 31.2 µg/mL (≈ 159 µM) | 31.2 µg/mL (≈ 159 µM) | 15.6 µg/mL (≈ 79.5 µM) | 62.5 µg/mL (≈ 319 µM) | 15.6 µg/mL (≈ 79.5 µM) | 15.6 µg/mL (≈ 79.5 µM) | 31.2 µg/mL (≈ 159 µM) | 31.2 µg/mL (≈ 159 µM) | 62.5 µg/mL (≈ 319 µM) | 62.5 µg/mL (≈ 319 µM) | 31.2 µg/mL (≈ 159 µM) | 
CCCCCCCCCCCCCCCCOC(=O)c1ccc(O)c(O)c1 [Protocatechuate hexadecyl] | > 250 µg/mL | > 250 µg/mL | > 250 µg/mL | > 250 µg/mL | > 250 µg/mL | > 250 µg/mL | > 250 µg/mL | > 250 µg/mL | > 250 µg/mL | > 250 µg/mL | > 250 µg/mL | > 250 µg/mL | 
CCOC(=O)c1ccc(O)c(O)c1 [Protocatechuate ethyl] | 31.2 µg/mL (≈ 171 µM) | 31.2 µg/mL (≈ 171 µM) | 31.2 µg/mL (≈ 171 µM) | 31.2 µg/mL (≈ 171 µM) | 31.2 µg/mL (≈ 171 µM) | 31.2 µg/mL (≈ 171 µM) | 31.2 µg/mL (≈ 171 µM) | 31.2 µg/mL (≈ 171 µM) | 31.2 µg/mL (≈ 171 µM) | 62.5 µg/mL (≈ 343 µM) | 31.2 µg/mL (≈ 171 µM) | 125 µg/mL (≈ 686 µM) | 
CCCCCCCCCCCCOC(=O)c1ccc(O)c(O)c1 [Protocatechuate dodecyl] | > 250 µg/mL | 125 µg/mL (≈ 388 µM) | > 250 µg/mL | 250 µg/mL (≈ 775 µM) | 62.5 µg/mL (≈ 194 µM) | 31.2 µg/mL (≈ 96.8 µM) | > 250 µg/mL | 125 µg/mL (≈ 388 µM) | 250 µg/mL (≈ 775 µM) | 250 µg/mL (≈ 775 µM) | 62.5 µg/mL (≈ 194 µM) | 62.5 µg/mL (≈ 194 µM) | 
O=C(O)c1ccc(O)c(O)c1 [Acid protocatechuic, Protocatechuic acid (3,4-dihydroxybenzoic)] |  | 250 µg/mL (≈ 1620 µM) | 250 µg/mL (≈ 1620 µM) |  | 250 µg/mL (≈ 1620 µM) |  |  | 250 µg/mL (≈ 1620 µM) | 250 µg/mL (≈ 1620 µM) |  | > 250 µg/mL |  | MIC (Trichophyton rubrum [1]; Trichophyton rubrum, 168 h): 250 µg/mL (≈ 1620 µM); MIC ([2]; Trichophyton mentagrophytes, 168 h): 250 µg/mL (≈ 1620 µM); MIC ([2]; Trichophyton mentagrophytes, ATCC40131, 168 h): 125 µg/mL (≈ 811 µM); MFC (Trichophyton rubrum [3]; Trichophyton rubrum): 250 µg/mL (≈ 1620 µM); MFC ([4]; Trichophyton mentagrophytes): > 250 µg/mL; MFC ([4]; Trichophyton mentagrophytes, ATCC40131): 125 µg/mL (≈ 811 µM)
CCCCOC(=O)c1ccc(O)c(O)c1 [Protocatechuate butyl] | 15.6 µg/mL (≈ 74.2 µM) | 7.8 µg/mL (≈ 37.1 µM) | 7.8 µg/mL (≈ 37.1 µM) | 7.80 µg/mL (≈ 37.1 µM) | 15.6 µg/mL (≈ 74.2 µM) | 15.6 µg/mL (≈ 74.2 µM) | 15.6 µg/mL (≈ 74.2 µM) | 7.8 µg/mL (≈ 37.1 µM) | 7.8 µg/mL (≈ 37.1 µM) | 62.5 µg/mL (≈ 297 µM) | 15.6 µg/mL (≈ 74.2 µM) | 15.6 µg/mL (≈ 74.2 µM) | 
